Data: US12447153B2, “HER2 mutation inhibitors” (Array BioPharma Inc., priority 2021, dated 2025)

How the values were obtained:
ErbB2 WT = ErbB2 WT (Homo sapiens (Human), UniProt P04626); experiment: ErbB Enzyme Assay (HTRF KinEASE-TK), Assay 2; format: biochemical
EGFR wild type (EGFR WT) = EGFR wild type (EGFR WT) (Homo sapiens (Human), UniProt P00533); experiment: Cellular Phosphorylation Assay, Assay 5 (EGF-stimulated EGFR phosphorylation, NIH 3T3 cells); format: cell-based
[1] = target: ErbB2 with Exon 20 YVMA insertion (HER2-YVMA) (Homo sapiens (Human), UniProt P04626, INS775YVMA); experiment: Cellular Phosphorylation Assay, Assay 4 (constitutive ErbB2 phosphorylation, NIH 3T3 cells); format: cell-based
EGFR = EGFR (Homo sapiens (Human), UniProt P00533); experiment: ErbB Enzyme Assay (HTRF KinEASE-TK), Assay 3; format: biochemical
BCRP = BCRP (Homo sapiens (Human), UniProt Q9UNQ0); experiment: BCRP MDCKII efflux assay (Assay 7); format: in vitro ADME; conditions: dog; efflux ratio Papp(B-A)/Papp(A-B), BCRP MDCKII cells; read-out: Assay 7 Pe Ratio
Protocol: Assay conditions included with and without the BCRP-specific inhibitor, KO143, at a concentration of 0.3 μM to ascertain the contribution of BCRP to the efflux value of the test compound.
Final organic concentration in the assay was 1%.

[2] = cellular EGFR WT phosphorylation, EGF-stimulated
[3] = cellular ErbB2 YVMA phosphorylation
[4] = EGF-stimulated EGFR WT phosphorylation

Sequence of BCRP (Q9UNQ0 whole entry): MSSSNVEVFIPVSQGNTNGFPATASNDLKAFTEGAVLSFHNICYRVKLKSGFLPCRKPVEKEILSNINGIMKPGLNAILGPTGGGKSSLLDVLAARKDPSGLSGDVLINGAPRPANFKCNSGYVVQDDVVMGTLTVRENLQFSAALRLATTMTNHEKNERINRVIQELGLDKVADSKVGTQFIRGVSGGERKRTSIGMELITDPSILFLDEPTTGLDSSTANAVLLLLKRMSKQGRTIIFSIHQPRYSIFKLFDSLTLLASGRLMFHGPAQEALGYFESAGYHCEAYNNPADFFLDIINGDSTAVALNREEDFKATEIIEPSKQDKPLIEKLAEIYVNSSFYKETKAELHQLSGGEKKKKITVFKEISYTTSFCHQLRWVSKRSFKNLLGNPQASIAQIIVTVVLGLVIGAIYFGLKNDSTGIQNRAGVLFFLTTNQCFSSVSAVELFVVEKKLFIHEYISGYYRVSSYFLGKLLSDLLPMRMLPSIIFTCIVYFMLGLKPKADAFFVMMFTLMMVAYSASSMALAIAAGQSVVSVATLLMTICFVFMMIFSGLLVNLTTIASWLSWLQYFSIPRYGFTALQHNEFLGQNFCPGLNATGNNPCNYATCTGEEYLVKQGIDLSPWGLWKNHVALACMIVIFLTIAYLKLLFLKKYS
Sequence of ErbB2 with Exon 20 YVMA insertion (HER2-YVMA) (P04626 other isoform, or with tags, fused parts or gaps ins YVMA behind 775): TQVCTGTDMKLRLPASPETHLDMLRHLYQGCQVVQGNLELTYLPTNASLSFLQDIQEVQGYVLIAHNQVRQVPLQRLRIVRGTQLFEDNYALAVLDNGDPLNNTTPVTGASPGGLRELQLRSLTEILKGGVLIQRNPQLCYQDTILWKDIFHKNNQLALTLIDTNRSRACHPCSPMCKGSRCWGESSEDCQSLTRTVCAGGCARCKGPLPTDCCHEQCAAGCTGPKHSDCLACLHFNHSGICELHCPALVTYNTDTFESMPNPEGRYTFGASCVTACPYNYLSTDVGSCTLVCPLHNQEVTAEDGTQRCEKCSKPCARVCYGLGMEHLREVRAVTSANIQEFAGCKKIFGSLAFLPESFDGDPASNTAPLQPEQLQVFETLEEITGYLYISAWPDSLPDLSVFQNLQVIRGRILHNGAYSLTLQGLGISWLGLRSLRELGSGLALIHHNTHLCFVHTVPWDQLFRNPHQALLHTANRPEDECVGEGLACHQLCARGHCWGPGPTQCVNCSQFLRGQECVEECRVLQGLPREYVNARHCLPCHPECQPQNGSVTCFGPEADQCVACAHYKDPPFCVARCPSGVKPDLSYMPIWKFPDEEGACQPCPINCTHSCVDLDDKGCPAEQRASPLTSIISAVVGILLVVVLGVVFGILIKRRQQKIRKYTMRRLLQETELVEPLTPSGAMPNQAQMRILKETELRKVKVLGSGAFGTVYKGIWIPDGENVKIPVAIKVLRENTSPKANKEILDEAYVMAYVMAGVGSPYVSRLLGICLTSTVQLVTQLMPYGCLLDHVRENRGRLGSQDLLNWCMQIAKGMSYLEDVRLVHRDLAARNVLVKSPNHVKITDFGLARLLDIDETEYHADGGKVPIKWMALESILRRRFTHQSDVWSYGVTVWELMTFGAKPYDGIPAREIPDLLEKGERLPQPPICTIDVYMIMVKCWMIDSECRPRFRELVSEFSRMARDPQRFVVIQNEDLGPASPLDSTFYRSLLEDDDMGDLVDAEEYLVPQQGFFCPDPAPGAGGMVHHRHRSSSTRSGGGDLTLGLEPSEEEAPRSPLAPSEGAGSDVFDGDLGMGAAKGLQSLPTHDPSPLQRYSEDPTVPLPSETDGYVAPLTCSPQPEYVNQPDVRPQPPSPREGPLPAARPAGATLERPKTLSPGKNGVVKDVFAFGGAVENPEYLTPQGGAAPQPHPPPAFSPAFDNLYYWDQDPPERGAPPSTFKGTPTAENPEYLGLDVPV
Sequence of EGFR (P00533 25-1210): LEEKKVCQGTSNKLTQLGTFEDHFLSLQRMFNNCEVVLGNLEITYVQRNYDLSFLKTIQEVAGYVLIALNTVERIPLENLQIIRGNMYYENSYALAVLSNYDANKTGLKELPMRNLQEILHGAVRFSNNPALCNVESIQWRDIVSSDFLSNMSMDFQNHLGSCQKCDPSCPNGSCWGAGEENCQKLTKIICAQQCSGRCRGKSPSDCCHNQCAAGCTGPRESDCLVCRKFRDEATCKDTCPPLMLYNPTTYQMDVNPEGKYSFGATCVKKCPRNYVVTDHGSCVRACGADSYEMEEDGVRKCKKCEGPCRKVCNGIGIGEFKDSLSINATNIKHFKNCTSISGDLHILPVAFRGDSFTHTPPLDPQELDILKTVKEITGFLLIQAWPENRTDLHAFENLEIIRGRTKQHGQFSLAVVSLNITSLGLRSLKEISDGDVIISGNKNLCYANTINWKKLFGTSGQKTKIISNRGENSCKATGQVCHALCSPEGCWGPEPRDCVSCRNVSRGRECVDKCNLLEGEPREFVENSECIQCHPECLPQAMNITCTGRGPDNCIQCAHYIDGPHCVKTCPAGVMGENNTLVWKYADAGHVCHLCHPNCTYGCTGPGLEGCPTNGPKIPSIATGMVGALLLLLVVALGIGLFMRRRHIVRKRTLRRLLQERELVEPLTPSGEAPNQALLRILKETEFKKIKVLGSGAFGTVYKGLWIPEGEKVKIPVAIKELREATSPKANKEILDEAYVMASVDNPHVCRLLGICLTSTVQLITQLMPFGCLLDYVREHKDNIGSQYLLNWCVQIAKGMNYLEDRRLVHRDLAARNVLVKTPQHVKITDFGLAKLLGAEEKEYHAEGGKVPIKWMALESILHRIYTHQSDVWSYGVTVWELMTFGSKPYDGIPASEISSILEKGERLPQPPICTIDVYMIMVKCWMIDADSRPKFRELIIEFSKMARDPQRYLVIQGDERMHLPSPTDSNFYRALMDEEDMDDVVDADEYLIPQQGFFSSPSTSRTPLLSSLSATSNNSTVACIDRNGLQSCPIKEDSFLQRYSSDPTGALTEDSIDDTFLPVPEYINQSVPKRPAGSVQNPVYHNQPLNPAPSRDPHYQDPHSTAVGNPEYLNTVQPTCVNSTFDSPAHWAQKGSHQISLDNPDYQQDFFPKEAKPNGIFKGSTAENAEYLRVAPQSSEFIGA
Sequence of EGFR wild type (EGFR WT) (P00533 25-1210): as above

Row | SMILES | IC50 (ErbB2 WT; ErbB2 WT enzyme assay) [nM] | IC50 (EGFR wild type (EGFR WT); [2]) [nM] | IC50 [1, 3] [nM] | IC50 (EGFR; EGFR enzyme assay) [nM] | efflux ratio at 2 h, 1 µM (BCRP) | IC50 (ErbB2 WT; ErbB2 WT enzyme) [nM] | IC50 (EGFR wild type (EGFR WT); [4]) [nM] | IC50 ([1]; ErbB2 YVMA phosphorylation) [nM] | IC50 (EGFR; EGFR enzyme) [nM]
1 | C=CC(=O)N1CCN(c2ccc3ncnc(Nc4ccc(Oc5ccn6ncnc6c5)c(C)c4F)c3n2)C[C@H]1COC [Example 358] | 10 | 83.2 | 2.9 | 237 | 8.5 | – | – | – | –
2 | C=CC(=O)N1CC2(CCN2c2ccc3ncnc(Nc4ccc(Oc5ccn6ncnc6c5)c(C)c4F)c3n2)C1 [Example 289] | 22.4 | ≥ 5000 | 53.7 | 2870 | 26 | – | – | – | –
3 | C=CC(=O)N1[C@@H]2CC[C@H]1C[C@H](c1ccc3ncnc(Nc4ccc(Oc5ccc6c(c5)ncn6C)c(C)c4F)c3n1)C2 [Example 195, 1-((1R,3s,5S)-3-(4-((2-fluoro-3-methyl-4-((1-methyl-1H-benzo[d]imidazol-5-yl)oxy)phenyl)amino)pyrido[3,2-d]pyrimidin-6-yl)-8-azabicyclo[3.2.1]octan-8-yl)prop-2-en-1-one] | – | – | – | – | 1.7 | 59.7 | 1060 | 17.9 | 2550
4 | C=CC(=O)N1CCN(c2nc3c(Nc4ccc(Oc5ccn6ncnc6c5)c(C)c4F)ncnc3cc2OC)CC1 [Example 152, 1-(4-(4-((4-([1,2,4]triazolo[1,5-a]pyridin-7-yloxy)-2-fluoro-3-methylphenyl)amino)-7-methoxypyrido[3,2-d]pyrimidin-6-yl)piperazin-1-yl)prop-2-en-1-one] | – | – | – | – | 17.5 | 37.3 | 613 | 20.9 | 1040
5 | C=CC(=O)N1CCCN(c2ccc3ncnc(Nc4ccc(Oc5ccn6ncnc6c5)c(Cl)c4F)c3n2)CC1 [Example 98, 1-(4-(4-((4-([1,2,4]triazolo[1,5-a]pyridin-7-yloxy)-3-chloro-2-fluorophenyl)amino)pyrido[3,2-d]pyrimidin-6-yl)-1,4-diazepan-1-yl)prop-2-en-1-one] | – | – | – | – | 11 | 51.1 | 2680 | 18.9 | 3360
6 | C=CC(=O)N1C[C@@H]2C[C@H]1CN2c1ccc2ncnc(Nc3cc(Cl)c(Oc4ccn5ncnc5c4)cc3F)c2n1 [Example 80, 1-((1S,4S)-5-(4-((4-([1,2,4]triazolo[1,5-a]pyridin-7-yloxy)-5-chloro-2-fluorophenyl)amino)pyrido[3,2-d]pyrimidin-6-yl)-2,5-diazabicyclo[2.2.1]heptan-2-yl)prop-2-en-1-one] | – | – | – | – | 12.4 | 17 | 246 | 4.1 | 218
7 | C=CC(=O)N1CCN(c2ccc3ncnc(Nc4ccc(Oc5cnc6c(c5)ncn6C)c(C)c4F)c3n2)C[C@@H]1C [Example 437] | 148 | 4910 | 18.6 | 9730 | 9.3 | – | – | – | –
8 | C=CC(=O)N1C2CC1CN(c1ccc3ncnc(Nc4ccc(Oc5ccn6ncnc6c5)c(C)c4F)c3n1)C2 [Example 47, 1-(3-(4-((4-([1,2,4]triazolo[1,5-a]pyridin-7-yloxy)-2-fluoro-3-methylphenyl)amino)pyrido[3,2-d]pyrimidin-6-yl)-3,6-diazabicyclo[3.1.1]heptan-6-yl)prop-2-en-1-one] | – | – | – | – | 9.6 | 60.9 | 2130 | 13.7 | 3720
9 | C=CC(=O)N1CC(c2ccc3ncnc(Nc4ccc(Oc5ccn6ncnc6c5)c(C)c4F)c3n2)C1 [Example 280] | 50.4 | 1890 | 21.1 | 2090 | 8.7 | – | – | – | –
10 | C=CC(=O)N1C[C@H]2C[C@@H]1CN(c1ccc3ncnc(Nc4cc(Cl)c(Oc5ccn6ncnc6c5)cc4F)c3n1)C2 [Example 292] | 75.5 | ≥ 5000 | 71 | ≥ 10000 | 15.6 | – | – | – | –
11 | C=CC(=O)N1CCN(c2ccc3ncnc(Nc4cc(C)c(Oc5cnc6c(c5)ncn6C)cc4F)c3n2)CC12CC2 [Example 354] | 31.6 | ≥ 5000 | 8.8 | ≥ 10000 | 13.4 | – | – | – | –
12 | C=CC(=O)N1C[C@H]2C[C@@H]1CN(c1ccc3ncnc(Nc4ccc(Oc5ccn6ncnc6c5)c(Cl)c4F)c3n1)C2 [Example 304] | 16.9 | 1670 | 11.6 | 757 | 13.8 | – | – | – | –

Now from value to compound:

Row | IC50 (ErbB2 WT; ErbB2 WT enzyme assay) [nM] | IC50 (EGFR wild type (EGFR WT); [2]) [nM] | IC50 [1, 3] [nM] | IC50 (EGFR; EGFR enzyme assay) [nM] | efflux ratio at 2 h, 1 µM (BCRP) | IC50 (ErbB2 WT; ErbB2 WT enzyme) [nM] | IC50 (EGFR wild type (EGFR WT); [4]) [nM] | IC50 ([1]; ErbB2 YVMA phosphorylation) [nM] | IC50 (EGFR; EGFR enzyme) [nM] | SMILES
13 | 23.7 | 975 | 12.5 | 992 | 7.3 | – | – | – | – | C=CC(=O)N1CCN(c2ccc3ncnc(Nc4ccc(Oc5cc(F)c6c(c5)ncn6C)c(C)c4)c3n2)CC1(C)C [Example 277]
14 | – | – | – | – | 15.2 | 108 | ≥ 5000 | 14.4 | ≥ 10000 | C=CC(=O)N1C[C@@H]2C[C@H]1CN(c1ccc3ncnc(Nc4cc(Cl)c(Oc5ccc6c(c5)ncn6C)cc4F)c3n1)C2 [Example 248]
15 | – | – | – | – | 4.3 | 15.8 | ≥ 5000 | 36.7 | 2580 | C=CC(=O)N1CCC(c2ccc3ncnc(Nc4ccc(Oc5ccc6c(c5)ncn6C)c(C)c4F)c3n2)CC1 [Example 146, 1-(4-(4-((2-fluoro-3-methyl-4-((1-methyl-1H-benzo[d]imidazol-5-yl)oxy)phenyl)amino)pyrido[3,2-d]pyrimidin-6-yl)piperidin-1-yl)prop-2-en-1-one]
16 | – | – | – | – | 11.6 | 9 | 874 | 9.3 | 2550 | C=CC(=O)N1CCN(c2ccc3ncnc(Nc4ccc(Oc5ccn6ncnc6c5)c(C)c4)c3n2)CC1(C)C [Example 77, 1-(4-(4-((4-([1,2,4]triazolo[1,5-a]pyridin-7-yloxy)-3-methylphenyl)amino)pyrido[3,2-d]pyrimidin-6-yl)-2,2-dimethylpiperazin-1-yl)prop-2-en-1-one]
17 | – | – | – | – | 2.1 | 132 | ≥ 5000 | 22.1 | ≥ 10000 | C=CC(=O)N1C[C@H](c2ccc3ncnc(Nc4cc(C)c(Oc5ccc6c(c5)ncn6C)cc4F)c3n2)C[C@H]1C [Example 192, 1-((2R,4R)-4-(4-((2-fluoro-5-methyl-4-((1-methyl-1H-benzo[d]imidazol-5-yl)oxy)phenyl)amino)pyrido[3,2-d]pyrimidin-6-yl)-2-methylpyrrolidin-1-yl)prop-2-en-1-one]
18 | – | – | – | – | 2.7 | 6.2 | 2730 | 10.4 | 1400 | C=CC(=O)N1CCC[C@@H](c2ccc3ncnc(Nc4ccc(Oc5ccc6c(c5)ncn6C)c(C)c4)c3n2)C1 (racemic) [Example 35, 1-(3-(4-((3-methyl-4-((1-methyl-1H-benzo[d]imidazol-5-yl)oxy)phenyl)amino)pyrido[3,2-d]pyrimidin-6-yl)piperidin-1-yl)prop-2-en-1-one]
19 | – | – | – | – | 7.3 | 60.4 | ≥ 5000 | 7.6 | ≥ 10000 | C=CC(=O)N1CCC(c2ccc3ncnc(Nc4ccc(Oc5ccc6c(c5)ncn6C)c(C)c4)c3n2)CC1C (stereo not drawn) [Example 123, 1-(2-methyl-4-(4-((3-methyl-4-((1-methyl-1H-benzo[d]imidazol-5-yl)oxy)phenyl)amino)pyrido[3,2-d]pyrimidin-6-yl)piperidin-1-yl)prop-2-en-1-one]
20 | – | – | – | – | 22.4 | 52.3 | 1580 | 10.2 | 2580 | C=CC(=O)N1C[C@H]2CN(c3ccc4ncnc(Nc5ccc(Oc6ccc7c(c6)ncn7C)c(C)c5)c4n3)C[C@H]21 [Example 116, 1-((1R,5S)-3-(4-((3-methyl-4-((1-methyl-1H-benzo[d]imidazol-5-yl)oxy)phenyl)amino)pyrido[3,2-d]pyrimidin-6-yl)-3,6-diazabicyclo[3.2.0]heptan-6-yl)prop-2-en-1-one]
21 | – | – | – | – | 10.1 | 18.5 | ≥ 5000 | 6 | 7790 | C=CC(=O)N1[C@H](C)CN(c2ccc3ncnc(Nc4ccc(Oc5ccc6c(c5)ncn6C)c(C)c4)c3n2)C[C@@H]1C [Example 106, 1-((2S,6R)-2,6-dimethyl-4-(4-((3-methyl-4-((1-methyl-1H-benzo[d]imidazol-5-yl)oxy)phenyl)amino)pyrido[3,2-d]pyrimidin-6-yl)piperazin-1-yl)prop-2-en-1-one]
22 | 76.3 | ≥ 5000 | 25.7 | 5640 | 15.3 | – | – | – | – | C=CC(=O)N1CCC(c2ccc3ncnc(Nc4ccc(Oc5cnc6c(c5)ncn6C)c(C)c4)c3n2)CC1 [Example 273]
23 | – | – | – | – | 6.7 | 28.7 | ≥ 5000 | 9.5 | 6870 | C=CC(=O)N1CCC(c2ccc3ncnc(Nc4ccc(Oc5ccc6c(c5)ncn6C)c(C)c4)c3n2)CC1 [Example 34, 1-(4-(4-((3-methyl-4-((1-methyl-1H-benzo[d]imidazol-5-yl)oxy)phenyl)amino)pyrido[3,2-d]pyrimidin-6-yl)piperidin-1-yl)prop-2-en-1-one]
24 | – | – | – | – | 42.7 | 15.8 | 869 | 3.8 | 1150 | C=CC(=O)N1CCN(c2ccc3ncnc(Nc4ccc(Oc5cnc6c(c5)ncn6C)c(Cl)c4)c3n2)CC1 [Example 33, 1-(4-(4-((3-chloro-4-((3-methyl-3H-imidazo[4,5-b]pyridin-6-yl)oxy)phenyl)amino)pyrido[3,2-d]pyrimidin-6-yl)piperazin-1-yl)prop-2-en-1-one]
